Data on 5 compounds can be found in paper PMC11792831, “Design and synthesis of doublecortin-like kinase 1 inhibitors and their bioactivity evaluation” (Journal of Enzyme Inhibition and Medicinal Chemistry, 2023).

For one data set, the target named is T1, DCLK1 (Homo sapiens, UniProt O15075).
T1 construct: purchased Eurofins (Belgium), contract assay service
T1 sequence (O15075 1-740): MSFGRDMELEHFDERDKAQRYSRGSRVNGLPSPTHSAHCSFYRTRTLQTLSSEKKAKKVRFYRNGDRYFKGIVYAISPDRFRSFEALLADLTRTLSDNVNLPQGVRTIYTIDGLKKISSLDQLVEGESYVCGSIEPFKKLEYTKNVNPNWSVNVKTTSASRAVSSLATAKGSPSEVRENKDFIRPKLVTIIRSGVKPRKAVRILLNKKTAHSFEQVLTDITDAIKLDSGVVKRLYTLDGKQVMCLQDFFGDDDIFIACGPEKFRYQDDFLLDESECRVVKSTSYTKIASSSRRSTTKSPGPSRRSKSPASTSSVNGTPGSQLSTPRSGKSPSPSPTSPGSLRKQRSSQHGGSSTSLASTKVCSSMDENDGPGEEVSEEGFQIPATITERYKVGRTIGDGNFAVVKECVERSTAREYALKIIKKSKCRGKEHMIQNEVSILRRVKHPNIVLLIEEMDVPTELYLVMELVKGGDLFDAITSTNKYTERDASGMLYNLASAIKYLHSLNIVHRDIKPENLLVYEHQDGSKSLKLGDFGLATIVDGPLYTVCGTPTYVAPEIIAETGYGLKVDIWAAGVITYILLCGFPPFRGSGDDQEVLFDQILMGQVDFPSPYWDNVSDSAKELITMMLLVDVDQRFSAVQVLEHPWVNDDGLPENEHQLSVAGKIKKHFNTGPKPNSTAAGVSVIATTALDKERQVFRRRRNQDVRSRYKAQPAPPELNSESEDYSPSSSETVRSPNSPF
Kind of data set: In vitro DCLK1 kinase activity assay (Eurofins). The format is biochemical. Particulars: for Selectivity (IC50 of DCLK1/IC50 of LRRK2): ratio of IC50 values; for Selectivity (DCLK1 activity/LRRK2 activity): ratio of remaining activities at 1 uM; for IC50: read-out: IC50 of DCLK1; for activity at 1 µM: remaining kinase activity at 1 uM compound, 100% = no inhibition, 0% = complete inhibition, read-out: DCLK1 activity (%). An excerpt:
(§1) Eurofins (Belgium) conducted in vitro DCLK1 and LRRK2 kinase activity assays. Compounds were sent as dry powders to Eurofins.

The subject of another data set is HCT116. Description: In vitro cytotoxicity / anti-proliferation assay (CCK8). In kind it is cell-based. As to conditions: Homo sapiens, HCT-116, colorectal cancer cell line HCT116, 72 h. The procedure: To determine whether DCLK1 was required for tumour cell proliferation, the cytotoxicity of compounds was evaluated in colorectal cancer cell line HCT116. HCT116 was treated with compounds for 72 h, and the cell viability was determined using CCK8 assay (Figure 4). The antiproliferative effects of most compounds on HCT116 were correlated with their DCLK1 inhibitory activities, except for compounds D1 and D2. The poor cytotoxicity of compounds D1 and D2 may be attributed to their poor cell membrane permeability due to the negatively charged carboxylates. […] Overall, targeting DCLK1 inhibited the proliferation of HCT116, indicating the importance of DCLK1 in tumour growth.
A 96-well plate (3599, Corning, USA) was inoculated with 100 μL of complete medium containing 10 000 cells, and the experimental, control, and blank groups were established. Three parallel wells were used per concentration. After 10 h, media from the experimental and control groups were replaced with a complete medium containing the indicated concentration of the compound. Cells were incubated for 72 h before 10 μL of CCK8 reagent (CA1210, Solarbio, China) was added to each well and incubated for 1 h. The absorbance at 450 nm was measured with a microplate reader (Tecan, Switzerland). The IC50 was determined using GraphPad Prism 8 and nonlinear regression curve fitting.

The target of another data set is T2, LRRK2 (Homo sapiens, UniProt Q5S007).
T2 construct: purchased Eurofins (Belgium), contract assay service
T2 sequence (Q5S007 whole entry): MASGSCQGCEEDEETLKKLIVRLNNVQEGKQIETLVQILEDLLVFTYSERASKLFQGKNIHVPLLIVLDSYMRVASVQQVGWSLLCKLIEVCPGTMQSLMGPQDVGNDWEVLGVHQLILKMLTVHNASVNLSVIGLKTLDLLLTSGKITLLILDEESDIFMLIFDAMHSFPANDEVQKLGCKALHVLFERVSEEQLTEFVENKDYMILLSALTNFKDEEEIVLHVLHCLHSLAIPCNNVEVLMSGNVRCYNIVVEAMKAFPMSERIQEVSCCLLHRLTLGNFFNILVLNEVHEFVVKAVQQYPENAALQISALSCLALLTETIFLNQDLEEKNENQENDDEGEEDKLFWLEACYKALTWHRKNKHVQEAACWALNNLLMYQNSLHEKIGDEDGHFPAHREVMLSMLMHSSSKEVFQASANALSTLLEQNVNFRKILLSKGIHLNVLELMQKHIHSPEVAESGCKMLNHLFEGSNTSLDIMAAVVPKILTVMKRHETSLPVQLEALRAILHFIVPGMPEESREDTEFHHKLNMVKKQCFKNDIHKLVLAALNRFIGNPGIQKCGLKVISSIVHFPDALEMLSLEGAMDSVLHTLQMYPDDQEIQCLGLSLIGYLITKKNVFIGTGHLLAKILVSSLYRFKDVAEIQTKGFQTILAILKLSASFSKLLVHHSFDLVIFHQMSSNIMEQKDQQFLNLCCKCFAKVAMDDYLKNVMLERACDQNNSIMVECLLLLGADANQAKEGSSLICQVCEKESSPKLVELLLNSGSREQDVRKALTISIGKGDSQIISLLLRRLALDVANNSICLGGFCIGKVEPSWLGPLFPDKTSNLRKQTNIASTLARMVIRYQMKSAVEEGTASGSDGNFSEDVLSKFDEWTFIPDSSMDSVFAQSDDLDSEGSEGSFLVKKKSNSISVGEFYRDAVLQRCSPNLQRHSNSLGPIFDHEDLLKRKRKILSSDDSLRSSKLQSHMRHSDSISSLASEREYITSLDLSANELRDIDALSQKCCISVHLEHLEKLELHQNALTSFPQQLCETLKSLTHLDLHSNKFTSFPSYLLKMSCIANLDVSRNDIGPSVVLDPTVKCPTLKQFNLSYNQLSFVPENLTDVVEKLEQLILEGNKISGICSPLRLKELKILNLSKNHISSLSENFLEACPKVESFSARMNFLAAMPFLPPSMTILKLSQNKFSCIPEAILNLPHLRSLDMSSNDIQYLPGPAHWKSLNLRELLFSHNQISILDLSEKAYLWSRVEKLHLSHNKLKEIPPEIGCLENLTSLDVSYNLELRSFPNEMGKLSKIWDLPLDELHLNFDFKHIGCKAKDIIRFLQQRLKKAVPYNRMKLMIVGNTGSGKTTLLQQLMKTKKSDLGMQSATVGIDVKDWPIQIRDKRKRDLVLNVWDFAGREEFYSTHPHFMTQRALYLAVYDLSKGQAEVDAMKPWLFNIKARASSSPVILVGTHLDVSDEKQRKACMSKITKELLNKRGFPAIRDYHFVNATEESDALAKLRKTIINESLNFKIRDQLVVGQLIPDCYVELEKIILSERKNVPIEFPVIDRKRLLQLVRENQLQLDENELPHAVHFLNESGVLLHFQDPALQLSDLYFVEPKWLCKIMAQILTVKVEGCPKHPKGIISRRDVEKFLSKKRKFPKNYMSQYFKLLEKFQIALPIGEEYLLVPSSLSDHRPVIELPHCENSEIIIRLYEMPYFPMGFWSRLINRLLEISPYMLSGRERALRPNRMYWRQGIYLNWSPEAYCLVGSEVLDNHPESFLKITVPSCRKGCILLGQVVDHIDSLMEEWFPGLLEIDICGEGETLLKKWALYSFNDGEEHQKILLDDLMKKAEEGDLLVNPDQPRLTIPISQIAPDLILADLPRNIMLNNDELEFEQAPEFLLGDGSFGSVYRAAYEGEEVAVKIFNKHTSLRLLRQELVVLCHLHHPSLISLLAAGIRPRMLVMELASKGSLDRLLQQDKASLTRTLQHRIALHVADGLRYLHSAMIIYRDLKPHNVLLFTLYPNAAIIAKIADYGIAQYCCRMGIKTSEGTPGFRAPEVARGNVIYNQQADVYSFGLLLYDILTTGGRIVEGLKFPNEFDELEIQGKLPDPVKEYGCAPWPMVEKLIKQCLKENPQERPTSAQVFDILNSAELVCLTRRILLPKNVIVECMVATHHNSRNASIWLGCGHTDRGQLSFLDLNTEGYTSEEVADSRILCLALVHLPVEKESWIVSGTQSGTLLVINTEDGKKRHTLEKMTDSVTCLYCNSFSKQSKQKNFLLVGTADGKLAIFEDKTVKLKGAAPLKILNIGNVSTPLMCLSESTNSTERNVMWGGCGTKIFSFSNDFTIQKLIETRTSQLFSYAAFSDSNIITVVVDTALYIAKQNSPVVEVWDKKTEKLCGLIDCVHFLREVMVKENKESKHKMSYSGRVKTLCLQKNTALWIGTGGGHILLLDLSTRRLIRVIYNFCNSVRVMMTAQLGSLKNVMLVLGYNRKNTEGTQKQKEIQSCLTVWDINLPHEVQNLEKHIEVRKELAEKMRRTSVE
Kind of data set: In vitro LRRK2 kinase activity assay (Eurofins). The format is biochemical. Particulars: for activity at 1 µM: remaining kinase activity at 1 uM compound, 100% = no inhibition, 0% = complete inhibition. On the procedure:
All compounds were tested for their kinase inhibitory activity at the concentration of 1 μM. […] Compounds with high activity or good selectivity were selected for further IC50 determination (Table 2).
as §1

Take `COc1cc(N2CCCCC2)ccc1Nc1ncc2c(n1)N(C)c1ccccc1C(=O)N2C` [Compound D11, 2-((2-Methoxy-4-(piperidin-1-yl)phenyl)amino)-5,11-dimethyl-5,11-dihydro-6H-benzo[e]pyrimido[5,4-b][1,4]diazepin-6-one]: the melting point (usually the temperature, or range, at which the solid turns liquid) was in the range of 166 to 167 °C. Besides, at DCLK1, the “Selectivity (IC50 of DCLK1/IC50 of LRRK2)” value was determined as 0.38; the “Selectivity (DCLK1 activity/LRRK2 activity)” value came out at 0.61; the IC50 (as a rule, the concentration that inhibits the measured activity by half) amounted to 100 nM; the activity at 1 µM stood at 11%. In the data set with HCT116, the IC50 was determined as 11.5 µM. Besides, on LRRK2, the IC50 is 266 nM and the activity at 1 µM was determined as 18%.

Take `CCOc1cc(N2CCN(C[C@@]3(O)OC[C@@H](O)[C@@H](O)[C@@H]3O)CC2)ccc1Nc1ncc2c(n1)N(C)c1ccccc1C(=O)N2C` [Compound D7, 2-((2-Ethoxy-4-(4-(((2R,3S,4R,5R)-2,3,4,5-tetrahydroxytetrahydro-2H-pyran-2-yl)methyl)piperazin-1-yl)phenyl)amino)-5,11-dimethyl-5,11-dihydro-6H-benzo[e]pyrimido[5,4-b][1,4]diazepin-6-one]: the melting point was in the range of 126 to 127 °C. Besides, on DCLK1, the “Selectivity (IC50 of DCLK1/IC50 of LRRK2)” value was 0.30, the “Selectivity (DCLK1 activity/LRRK2 activity)” value stood at 0.29, the IC50 came out at 46 nM and the activity at 1 µM was found to be 6%. For the same compound, the IC50 in the data set on HCT116 was found to be 10.5 µM. At LRRK2, this compound gave an IC50 of 154 nM and an activity at 1 µM of 21%.

The compound `CCOc1cc(N2CCS(=O)(=O)CC2)ccc1Nc1ncc2c(n1)N(C)c1ccccc1C(=O)N2C` [Compound D6, 2-((4-(1,1-Dioxidothiomorpholino)-2-ethoxyphenyl)amino)-5,11-dimethyl-5,11-dihydro-6H-benzo[e]pyrimido[5,4-b][1,4]diazepin-6-one] registered a melting point of 157 to 158 °C. For the same compound, on DCLK1, the “Selectivity (IC50 of DCLK1/IC50 of LRRK2)” value stood at 0.38, the “Selectivity (DCLK1 activity/LRRK2 activity)” value was 0.47, the IC50 came to 74 nM and the activity at 1 µM was 9%. Also, the IC50 with HCT116 stood at 12 µM. On LRRK2, this compound had an IC50 of 195 nM and an activity at 1 µM of 19%.

`CCOc1cc(N2CCSCC2)ccc1Nc1ncc2c(n1)N(C)c1ccccc1C(=O)N2C` [Compound D4, 2-((2-Ethoxy-4-thiomorpholinophenyl)amino)-5,11-dimethyl-5,11-dihydro-6H-benzo[e]pyrimido[5,4-b][1,4]diazepin-6-one] yielded a melting point of 190 to 191 °C. Moreover, on DCLK1, the “Selectivity (IC50 of DCLK1/IC50 of LRRK2)” value came out at 0.64, the “Selectivity (DCLK1 activity/LRRK2 activity)” value was 0.55, the IC50 stood at 271 nM and the activity at 1 µM was found to be 18%. In addition, the IC50 with HCT116 is 28.8 µM. At LRRK2, this compound displayed an IC50 of 425 nM and an activity at 1 µM of 33%.

`COc1cc(NC(=O)CCCCCSC(C)=O)ccc1Nc1ncc2c(n1)N(C)c1ccccc1C(=O)N2C` [Compound D8, S-(6-((4-((5,11-dimethyl-6-oxo-6,11-dihydro-5H-benzo[e]pyrimido[5,4-b][1,4]diazepin-2-yl)amino)-3-methoxyphenyl)amino)-6-oxohexyl) ethanethioate] showed a melting point of 159 to 160 °C. Besides, on DCLK1, the “Selectivity (IC50 of DCLK1/IC50 of LRRK2)” value amounted to 0.18, the “Selectivity (DCLK1 activity/LRRK2 activity)” value was determined as 0.36, the IC50 came out at 40 nM and the activity at 1 µM stood at 8%. Moreover, the IC50 in the data set with HCT116 came out at 11.5 µM. On LRRK2, this compound gave an IC50 of 228 nM and an activity at 1 µM of 22%.
